Earlier results, collected in US20230117508A1, “ENHANCEMENT OF CAMP SIGNALING AS A COMBINATION DRUG STRATEGY FOR THE TREATMENT OF PSYCHIATRIC AND NEUROLOGICAL DISORDERS IN WHICH DEPRESSIVE, ANHEDONIA, MOTIVATION-RELATED OR COGNITION-RELATED DYSFUNCTION EXISTS” (ALTO NEUROSCIENCE, INC., priority 2021, published 2023).

Columns and labels:
[1] = in vivo
[2] = humans
[3] = not given; remark: listed apart in the source
[4] = small clinical trials in depression

O=C(Nc1c(Cl)cncc1Cl)c1ccc(OC(F)F)c(OCC2CC2)c1 [Roflumilast]
antidepressant effect [1]: no evidence of an antidepressant effect
cognitive effects [1]: pro-cognitive effects

CCOC(=O)COc1ccc2c(c1)C[C@@H](NC[C@H](O)c1cccc(Cl)c1)CC2 [amibegron]
antidepressant-like effects in animals: promising antidepressant-like effects
efficacy in two acute treatment clinical trials for depression [2]: failed to show efficacy

COc1ccc(C2CNC(=O)C2)cc1OC1CCCC1 (stereo not drawn) [rolipram]
phenotypes of treated mice [3]: antidepressant and pro-cognitive phenotypes
improvement in depression compared with TCA medications [4]: In none of these studies, however, did rolipram produce a greater improvement in depression than the TCA medications
